Earlier results as cited in patent US7671051B2, “Inhibitors of 11-β-hydroxy steroid dehydrogenase type 1” (Biovitrum AB, priority 2001, dated 2010).

Tested on: bone nodule formation

SMILES: CC1(C)[C@@H](OC(=O)CCC(=O)O)CC[C@]2(C)[C@H]3C(=O)C=C4[C@@H]5C[C@@](C)(C(=O)O)CC[C@]5(C)CC[C@@]4(C)[C@]3(C)CC[C@@H]12 [carbenoxolone]
- negative effect (of glucocorticoid) on bone nodule formation: blocked
